Assays:
[1] = biological target: T1, human cystic fibrosis conductance transmembrane regulator (CFTR) (Homo sapiens, UniProt P13569); assay: Effect upon CFTR chloride ion channel activity (YFP fluorescence quenching by iodide influx in FRT cells); format: cell-based; conditions: for Emax at 30 µM: FRT, 10 min, final concentration of 30 μM, reaction for 10 minutes, ratio based on the CFTR activity maximized by forskolin
T1 construct: expressed in transfected cells; host or cells: FRT cells (Fischer rat thyroid epithelial cells)
Experimental: FRT cells expressing […] specific to human cystic fibrosis conductance transmembrane regulator (CFTR) and iodide ions are cultured in the Coon's modified F-12 culture medium for 48 hours on a 96-well plate. Each well of the plate containing the cultured cells is washed three times with 200 μl of PBS buffer, and then 100 μl of PBS buffer is added to each well. The indolizino[3,2-c]quinoline derivative according to each Example is introduced to each well to a final concentration of 30 μM, followed by reaction for 10 minutes. After the completion of the reaction, the 96-well is mounted to a FLUOstar Omega microplate reader (BMG LABTECH) and 100 μl of NaI solution is added to each well. Then, YFP fluorescence reduced by the iodide ions introduced to the cells through CFTR is recorded at an interval of 0.4 seconds for 24 seconds in total, thereby evaluating the effect of each compound upon CFTR activity.
The effect of each indolizino[3,2-c]quinoline derivative upon CFTR chloride ion channel activity is calculated as an activity ratio based on the CFTR activity maximized by a well-known CFTR agonist, forskolin.

[2] = tested on: Adipose-derived stem cells (ASC); assay: Proliferation/viability MTT assay, adipose-derived stem cells; format: cell-based; conditions: 0.1-100 μM, 24 and 48 hours, FIG. 2
Experimental: (§1) Adipose-derived stem cells (ASC) and melanoma cells (B16 melanoma cells) are cultured in high-glucose Dulbecco's modified Eagle's medium (DMEM) with 10% fetal bovine serum (FBS) introduced thereto. Each type of cells is cultured in an incubator under the conditions of 37° C. and 5% CO2.
(§2) Cell survivability and cytotoxicity are determined in a 96-well plate by MTT assay. Each type of cells is implanted into a 6-well plate in a number of 3×10^4/well (ASC) and 4×10^4/well and cultured for 24 hours. Then, media change into high-glucose DMEM is carried out for both ASC and B16 and cultured overnight. After starvation, the cells are treated with each of the compounds according to Examples at a different concentration (0.1, 1, 10, 50, 100 μM), and further incubated for 24 hours and 48 hours under the conditions of 37° C. and 5% CO2. Then, MTT solution (5 mg/ml in PBS) is added to each well in an amount corresponding to 1/20 of the media volume, and incubation is carried out at 37° C. for 2 hours so that the cells are colored. After that, the supernatant is removed and dimethyl sulfoxide is added to carry out discoloration. The solution is determined by using an enzyme-linked immunosorbent assay (ELISA) reader at a wavelength of 595 nm.

[3] = tested on: Adipose-derived stem cells; assay: Migration assay (mechanical wound, Incucyte zoom); format: cell-based; conditions: 0.1, 1, 10, 50 μM, 24 and 48 hours; FIG. 5 and FIG. 6
Experimental: Adipose-derived stem cells are implanted into a 96-well plate in a number of 3×10^4/well and cultured for 24 hours. Then, media change into high-glucose DMEM is carried out and the cells are cultured overnight. After starvation, a mechanical wound is made and the cells are treated with each of the compounds according to Examples at a different concentration (0.1, 1, 10, 50 μM). Next, the cells are incubated for 24 hours and 48 hours under the conditions of 37° C. and 5% CO2. Then, the Incucyte zoom (Essen Bioscience, USA) is photographed from the time point of treatment with each compound at an interval of 1 hour to analyze the migration of ASC.

[4] = tested on: Adipose-derived stem cells (ASC) and melanoma cells (B16 melanoma cells); assay: Cytotoxicity by MTT assay; format: cell-based; conditions: at a high concentration of 100 μM, FIG. 3 and FIG. 4
Experimental: as §1, §2

T1 sequence (P13569 whole entry): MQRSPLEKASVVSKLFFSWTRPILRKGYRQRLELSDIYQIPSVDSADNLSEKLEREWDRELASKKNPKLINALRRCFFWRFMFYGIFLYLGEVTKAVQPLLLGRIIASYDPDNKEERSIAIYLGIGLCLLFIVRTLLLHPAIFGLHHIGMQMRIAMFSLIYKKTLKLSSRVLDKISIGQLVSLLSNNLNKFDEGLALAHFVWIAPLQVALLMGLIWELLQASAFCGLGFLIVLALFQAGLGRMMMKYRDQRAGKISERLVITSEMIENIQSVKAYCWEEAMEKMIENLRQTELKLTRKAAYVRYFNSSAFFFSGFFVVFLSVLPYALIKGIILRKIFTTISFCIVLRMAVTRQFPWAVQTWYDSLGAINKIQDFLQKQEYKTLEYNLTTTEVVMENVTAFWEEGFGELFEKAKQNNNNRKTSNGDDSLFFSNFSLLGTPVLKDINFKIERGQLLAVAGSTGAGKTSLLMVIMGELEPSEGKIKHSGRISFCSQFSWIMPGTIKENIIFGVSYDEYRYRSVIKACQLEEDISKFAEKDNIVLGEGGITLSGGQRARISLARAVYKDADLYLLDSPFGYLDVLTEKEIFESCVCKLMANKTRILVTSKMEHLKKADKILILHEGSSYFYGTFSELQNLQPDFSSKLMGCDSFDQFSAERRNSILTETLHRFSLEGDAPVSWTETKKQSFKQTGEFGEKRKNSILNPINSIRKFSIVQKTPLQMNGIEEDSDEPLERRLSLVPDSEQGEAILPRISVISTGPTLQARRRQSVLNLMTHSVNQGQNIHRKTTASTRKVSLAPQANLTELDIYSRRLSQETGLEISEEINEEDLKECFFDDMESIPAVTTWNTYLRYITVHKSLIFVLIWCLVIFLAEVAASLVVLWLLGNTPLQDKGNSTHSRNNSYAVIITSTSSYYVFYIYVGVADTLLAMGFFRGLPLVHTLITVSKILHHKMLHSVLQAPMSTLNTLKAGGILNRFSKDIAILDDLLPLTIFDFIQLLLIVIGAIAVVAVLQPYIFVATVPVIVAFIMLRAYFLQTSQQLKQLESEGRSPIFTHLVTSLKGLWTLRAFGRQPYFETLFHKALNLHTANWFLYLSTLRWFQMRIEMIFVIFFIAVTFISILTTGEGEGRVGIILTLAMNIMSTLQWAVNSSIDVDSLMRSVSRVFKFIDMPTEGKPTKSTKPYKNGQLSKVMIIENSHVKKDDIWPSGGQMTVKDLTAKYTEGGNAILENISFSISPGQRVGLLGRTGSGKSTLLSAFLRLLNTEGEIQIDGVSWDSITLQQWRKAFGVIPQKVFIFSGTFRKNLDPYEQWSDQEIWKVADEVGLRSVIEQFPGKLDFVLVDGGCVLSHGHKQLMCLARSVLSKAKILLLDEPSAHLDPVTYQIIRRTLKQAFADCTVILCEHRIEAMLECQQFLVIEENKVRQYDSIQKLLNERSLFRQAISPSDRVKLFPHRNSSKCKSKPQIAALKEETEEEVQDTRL

CFTR activity ratio, result in words ([1]; 30 μM, comment on Table 2) | Emax at 30 µM [1] | melting point | Structure (SMILES) | proliferation of adipose-derived stem cells [2] | migration ability of adipose-derived stem cells [3] | cytotoxicity [4]
high activity ratio | 82% | 177.9 to 178.3 °C | c1ccc(-c2nc3ccccc3c3cc4ccccn4c23)nc1 [Example 14, 6-(Pyridin-2-yl)indolizino[3,2-c]quinoline] | highly effective |  | 
 |  | 112.4 to 113.2 °C | Cc1cccn2c1cc1c3ccccc3nc(-c3ccco3)c12 [Example 23, 6-(Furan-2-yl)-11-methylindolizino[3,2-c]quinoline] | highly effective |  | 
 |  | 212 to 212.7 °C | Brc1ccc2cc3c4ccccc4nc(-c4cccc5ccccc45)c3n2c1 [Example 27, 9-Bromo-6-(4naphthalen-1-yl)indolizino[3,2-c]quinoline] | highly effective | has migration ability | no toxicity
 | 44% | 205.6 to 206.3 °C | c1ccc2c(-c3nc4ccccc4c4cc5ccccn5c34)cccc2c1 [Example 12, 6-(Naphthalen-1-yl)indolizino[3,2-c]quinoline] | highly effective | has migration ability | no toxicity

Reference: patent publication US9296751B1, “Indolizino[3,2-c]quinoline derivatives, pharmaceutically acceptable salt thereof, preparation method thereof and pharmaceutical composition for treatment of cystic fibrosis containing the same as active ingredient” (INDUSTRY-ACADEMIC COOPERATION FOUNDATION, YONSEI UNIVERSITY, priority 2014, dated 2016)
